According to patent US20200061155A1, “COMPOSITIONS AND METHODS FOR TREATING LYNX2 DISORDERS” (OPHIDION, INC, priority 2017, published 2020):

Tests used:
[1] = tested on: basolateral amygdalar neurons of lynx2KO mice; experiment: spike timing dependent plasticity (post-pre stimulation), EPSC amplitude, perforated patch-clamp; assay type: cell-based, mouse; conditions: 10 μM DHPG for 15 min; lynx2KO neurons (FIG. 8E)
Description: Spike timing (i.e., Δt in ms) was determined between the onset of the EPSP and the peak of the AP. […] Post-pre stimulation was given tp determine the level of LTD. x-axis is time in minutes, y axis is EPSC amplitude, normalized and presented as a percentage (baseline set to 100). Baseline is EPSC amplitude before post-pre stimulation.
For activation of mGluR receptor with DHPG (FIG. 8E) in a spike-timing dependent paradigm (post-pre stimulation) to elicit LTD. For exploration of the mechanism of anti-Hebbian LTP, mGluR5 agonist DHPG (10 μM, Tocris Bioscience, Bristol, UK) was administered for 15 min when the baseline recorded at least 10 min. […] Baseline is EPSC amplitude before post-pre stimulation.
Pairings were repeated 100 times. Pre-post (spike timings as positive) was set as a 1 EPSP/1 AP pairing (100 repeats at 1 Hz) or post-pre (spike timing as negative) with either 1 AP/1 EPSP pairing (100 repeats at 1 Hz). Spike timing (i.e., Δt in ms) was determined between the onset of the EPSP and the peak of the AP.

lynx2KO mice [2] = experiment: light dark box experiment (latency to enter dark enclosed environment); assay type: in vivo, mouse; conditions: lynx2KO mice under chronic stress with mec vs lynx2KO mice without mec (FIG. 2A)
From the text: FIG. 2A is a graph of the time in seconds (latency) for wild type (WT) (black bars) or lynx2 knock out (KO) (white bars) mice to enter a dark enclosed environment under conditions of saline, chronic stress, or chronic stress with administration of mecamylamine (mec) as indicated, according to embodiments of the present invention.

lynx2KO mice [3] = experiment: fear extinction experiment (noise previously paired with electric shock); assay type: in vivo, mouse; conditions: lynx2KO mice with mec vs lynx2KO mice without mec (FIGS. 2B-2C)
Description: FIG. 2B is a graph of fear observed in wild type (black circles) and lynx2KO mice (white triangles) after fear training (an electric shock depicted in yellow) associated with a noise for 24 hours followed by the same noise without the shock to measure the mouse's capability to lose the fear, according to embodiments of the present invention.
FIG. 2C is a graph of fear observed in lynx2KO mice during the fear extinction experiment of FIG. 2B with a group of lynx2KO mice receiving mecamylamine (mec), according to embodiments of the present invention.

[4] = tested on: brain slices from lynx2 knockout (KO) mice; experiment: long term depression (LTD) of evoked fEPSPs in brain slices after theta pulse stimulation; assay type: cell-based, mouse; conditions: ACSF with 20 mM methyllycaconitine; lynx2KO slices; theta pulse stimulation (FIG. 4D)
Description: FIG. 4D is a graph of stimulating electrode traces from long term depression (LTD) experiments using extracellular recordings for evoked field excitatory post-synaptic potentials (fEPSPs) in […] (EC) brain slices in ACSF solution with […] methyllycaconitine (MLA) from lynx2 knockout (KO) mice before (left of zero minutes) and after (right of zero minutes) theta pulse stimulations (TSP), according to embodiments of the present invention.
Field excitatory postsynaptic potentials (fEPSPs) were evoked by 0.05 Hz test stimulus though a bipolar stimulating electrode placed on external Capsule (EC), and a glass pipette as recording electrode was filled with ACSF and placed in BLA. […] Access resistances were continuously monitored and neurons with more than 20% change of series resistance were excluded from data analysis.
The plasticity ratio was calculated from the average EPSP amplitude of the last 10 mins of baseline recording and the last 15 mins after high frequency or low stimulus, for LTP and LTD studies, respectively. […] For all experiments, treatment effects were analyzed with one-way ANOVA, followed by the appropriate post hoc tests. […]

With `NC(C(=O)O)c1cc(O)cc(O)c1` (stereo not shown) [DHPG, 3,5-dihydroxyphenylglycine] the “synaptic plasticity (EPSC amplitude after post-pre stimulation)” value [1] was “restores the abnormal synaptic plasticity in the lynx2KO neurons to normal levels”.
With `CNC1(C)C2CCC(C2)C1(C)C` (stereo not shown) [mecamylamine] the latency to dark (lynx2KO mice [2]) was “increased latency to dark” and the “ability to unlearn a fear associated with a noise (fear extinction)” value (lynx2KO mice [3]) was “increased ability to unlearn a fear associated with a noise”.
For `CCN1C[C@]2(COC(=O)c3ccccc3N3C(=O)C[C@H](C)C3=O)CC[C@H](OC)[C@@]34[C@@H]5C[C@H]6[C@H](OC)[C@@H]5[C@](O)(C[C@@H]6OC)[C@@](O)([C@@H](OC)[C@H]23)[C@@H]14` [methyllycaconitine], the “induced long term depression (LTD) of fEPSPs” value [4] was “able to rescue induced long term depression (LTD)”.
